Columns and labels:
[1] = biological target: Kappa-type opioid receptor (Homo sapiens, UniProt P41145); assay: Displacement of [3H]diprenorphine from human kappa opioid receptor expressed in CHO cells by liquid scintillation counting analysis; assay type: cell-based
[2] = system: MDCK; assay: Efflux ratio of apparent permeability across […] in MDCK cells expressing human P-gp; assay type: ADME, cell-based, Canis lupus familiaris; settings: dog
[3] = biological target: T1, Delta-type opioid receptor (Homo sapiens, UniProt P41143); assay: Displacement of [3H]diprenorphine from human delta opioid receptor expressed in CHO cells by liquid scintillation counting analysis; assay type: cell-based
T1 sequence (P41143 whole entry): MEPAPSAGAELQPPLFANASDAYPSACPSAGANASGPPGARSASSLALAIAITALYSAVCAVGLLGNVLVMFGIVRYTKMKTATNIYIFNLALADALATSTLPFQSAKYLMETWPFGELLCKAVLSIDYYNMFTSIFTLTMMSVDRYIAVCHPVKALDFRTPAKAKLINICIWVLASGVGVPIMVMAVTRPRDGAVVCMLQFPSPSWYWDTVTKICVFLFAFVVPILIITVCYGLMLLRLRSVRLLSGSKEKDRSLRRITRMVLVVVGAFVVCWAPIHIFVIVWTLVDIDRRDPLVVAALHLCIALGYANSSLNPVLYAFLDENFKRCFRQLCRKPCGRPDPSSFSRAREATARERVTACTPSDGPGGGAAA

[4] = biological target: T1, Delta-type opioid receptor; assay: Antagonist activity at delta opioid receptor (unknown origin) assessed as [35S]-GTPgammaS binding by liquid scintillation counting analysis; assay type: functional
[5] = biological target: Mu-type opioid receptor (Homo sapiens, UniProt P35372); assay: Displacement of [3H]diprenorphine from human mu opioid receptor expressed in CHO cells by liquid scintillation counting analysis; assay type: cell-based
Chain of Mu-type opioid receptor (P35372 whole entry): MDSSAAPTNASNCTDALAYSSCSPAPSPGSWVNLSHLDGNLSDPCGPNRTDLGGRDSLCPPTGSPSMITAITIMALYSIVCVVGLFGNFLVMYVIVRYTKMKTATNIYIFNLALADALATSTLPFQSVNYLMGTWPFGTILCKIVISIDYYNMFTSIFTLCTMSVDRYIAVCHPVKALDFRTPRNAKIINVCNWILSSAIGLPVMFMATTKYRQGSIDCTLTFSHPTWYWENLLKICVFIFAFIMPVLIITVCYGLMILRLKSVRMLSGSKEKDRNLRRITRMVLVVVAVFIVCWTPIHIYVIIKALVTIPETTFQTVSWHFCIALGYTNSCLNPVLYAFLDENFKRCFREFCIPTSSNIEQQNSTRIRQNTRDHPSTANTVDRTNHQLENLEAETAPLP

[6] = In vitro clearance in human liver microsomes; assay type: ADME; settings: read-out: CLH
[7] = Plasma concentration in mouse at 32 mg/kg, sc after 4 hrs; assay type: ADME, organism-based; design: dose 32 mg/kg, route subcutaneous
[8] = system: Brain; assay: Ratio of drug uptake from wild type P-gp mouse brain to P-gp deficient mouse brain compound treated subcutaneously; assay type: ADME; settings: sc
[9] = species on record: Mus musculus; assay: Reversal of SNC-80 induced hypothermia in ICR mouse assessed as rectal temperature; assay type: functional
[10] = Ratio of ED50 for Reversal of SNC-80 induced hypothermia in ICR mouse over Ki for human delta opioid receptor
[11] = Ratio of plasma concentration in mouse over Ki for human delta opioid receptor; assay type: ADME, cell-free
[12] = system: Cerebrospinal fluid; assay: Drug uptake in rat cerebrospinal fluid at 10 mg/kg, sc; assay type: ADME, organism-based; design: dose 10 mg/kg, route subcutaneous; settings: in vivo, read-out: Drug uptake
[13] = system: Cerebrospinal fluid; assay: Drug uptake in rat cerebrospinal fluid at 32 mg/kg, sc; assay type: ADME, organism-based; design: dose 32 mg/kg, route subcutaneous; settings: in vivo, read-out: Drug uptake
[14] = Fraction unbound in mouse at 32 mg/kg, sc after 4 hrs; assay type: ADME, organism-based; design: dose 32 mg/kg, route subcutaneous; settings: in vivo

Chain of Kappa-type opioid receptor (P41145 whole entry): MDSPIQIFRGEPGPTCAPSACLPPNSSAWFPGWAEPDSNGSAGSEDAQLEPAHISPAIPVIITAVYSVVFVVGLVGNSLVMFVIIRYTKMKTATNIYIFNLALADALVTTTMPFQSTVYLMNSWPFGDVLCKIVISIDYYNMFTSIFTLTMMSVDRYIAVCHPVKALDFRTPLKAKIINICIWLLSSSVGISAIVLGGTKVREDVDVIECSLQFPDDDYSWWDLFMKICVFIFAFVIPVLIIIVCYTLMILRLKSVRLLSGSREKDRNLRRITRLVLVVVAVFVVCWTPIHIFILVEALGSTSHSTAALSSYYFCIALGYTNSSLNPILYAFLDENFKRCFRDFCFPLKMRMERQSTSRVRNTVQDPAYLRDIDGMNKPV

Compound	Ki [1] [nM]	Ratio [2]	Ki [3] [nM]	IC50 [4] [nM]	Ki [5] [nM]	CLint scaled [6] [mL/min/kg]	concentration at 4 h [7] [nM]	Ratio [8]	ED50 [9] [mg/kg]	Ratio [10]	Ratio [11]	concentration [12] [nM]	concentration [13] [nM]	fraction unbound at 4 h [14]
CCCC(C)CN1CCC(c2cccc(O)c2)(c2ncc(C(=O)N(CC)CC)cn2)CC1 (stereo not drawn)	> 890	13	6	21	> 890	40								
CCCC(C)CN1CCC(c2ccc(C(=O)N(C)C)cc2)(c2cccc(O)c2)CC1 (stereo not drawn)					> 890	80								
CCC[C@@H](C)CN1CCC(c2cccc(O)c2)(c2ncc(C(=O)N(CC)CC)cn2)CC1	142	13	2	35	830	48	7500	6.5	3	15	100	103	300	0.3
CCCC(C)CN1CCC(c2cccc(C(N)=O)c2)(c2ncc(C(=O)N(CC)CC)cn2)CC1 (stereo not drawn)	65	13	2	35	> 890	13								

From ChEMBL document CHEMBL3217747, “Discovery and pharmacological characterization of a selective delta opiate receptor antagonist (CP-646,777)” (Medchemcomm, 2011)
